What all share (experiment): inhibition of tumour cell growth, NCI panel, 48 h
Experiment [1] relates to SF-295 CNS.
The subject of experiment [2] is SF-268 CNS.
The subject of experiment [3] is KM12 colon.
Experiment [4] concerns CCRF-CEM leukemia.
For experiment [5], the system named is NCI-H522 lung.
The subject of experiment [6] is MDA-MB-231 breast.
The test system of experiment [7] is OVCAR-4 ovarian.
Experiment [8] deals with IGROV1 ovarian.
The subject of experiment [9] is K-562 leukemia.
Experiment [10] relates to OVCAR-5 ovarian.
Experiment [11] concerns SW-620 colon.
The test system of experiment [12] is EKVX NSCLC.
Experiment [13] deals with MOLT-4 leukemia.

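A five-concentration, 48-hour dose response in 96-well plates underlies each endpoint, interpolated linearly between surrounding concentrations. TGI is the concentration that stops growth completely.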

In the case of `CCOc1ccc(N/C(Cl)=C(Cl)\C(=C(\Nc2ccc(OCC)cc2)n2nnc3ccccc32)[N+](=O)[O-])cc1`, the TGI in experiment [1] is 57.7 µM; in experiment [2] it was 32.1 µM; in experiment [3] it was more than 57.6 µM; in experiment [4], 33.9 µM; in [5] it was 2.86 µM; in experiment [6], 15.6 µM. Moreover, the TGI in experiment [7] was 30.8 µM; in experiment [8], 5.33 µM; in experiment [9] it was more than 21.6 µM; in experiment [10] it was 27 µM; in [11], 5.71 µM; in experiment [12], 31.3 µM. For the same compound, in experiment [13], the TGI was more than 100 µM.
On to `CC(NC(=O)c1ccccc1)NC(=O)C(C)C(=O)Nc1ccccc1` (stereo unspecified), for which the TGI in experiment [1], in experiment [2], in [3], in experiment [4], in experiment [5] and in experiment [6] was more than 100 µM each time. Also, the TGI in [7], in [8], in experiment [9], in [10], in [11] and in experiment [12] was more than 100 µM throughout. The compound further registered a TGI in [13] of more than 100 µM.
`CCc1n[nH]c(=O)n1/N=C/c1ccc(C)cc1`: the TGI in experiment [1], in experiment [2], in experiment [3], in experiment [4], in experiment [5] and in experiment [6] was more than 100 µM in each case. The TGI in experiment [7], in experiment [8], in experiment [9], in [10], in experiment [11] and in experiment [12] was more than 100 µM in each case. The TGI in [13] is more than 100 µM.
As for `O=c1ccn(C2OC(CO)C(O)C2[Se]c2ccccc2)c(=O)[nH]1` (stereo unspecified), the TGI in experiment [1], in [2], in experiment [3], in [4], in [5] and in experiment [6] was more than 100 µM each time. Also, the TGI in experiment [7], in [8], in [9], in experiment [10], in experiment [11] and in [12] was more than 100 µM in each case. In experiment [13], this compound displayed a TGI of more than 100 µM.
In the case of `C[n+]1c(-c2ccc(/C=N/NC(=O)C(=O)N/N=C/c3ccc(-c4cn5ccsc5[n+]4C)cc3)cc2)cn2ccsc21`, the TGI in experiment [1], in experiment [2], in experiment [3], in experiment [4], in experiment [5] and in experiment [6] was more than 100 µM each time. The TGI in [7], in experiment [8], in experiment [9], in [10], in experiment [11] and in [12] was more than 100 µM in each case. In addition, in [13], the TGI was more than 100 µM.
Consider `CCOC(=O)CSc1nnc2cc(CN3CCCC3)c(-c3ccc(Cl)cc3)nn12`, for which the TGI in [1], in experiment [2], in experiment [3], in experiment [4], in experiment [5] and in experiment [6] was more than 100 µM throughout. Besides, the TGI in experiment [7], in [8], in experiment [9], in [10], in experiment [11] and in experiment [12] was more than 100 µM in each case. Also, the TGI in experiment [13] was more than 100 µM.
Consider `CN(C)CCN=C1Nc2ccccc2C(=S)N2CSCC12` (stereo unspecified), for which the TGI in experiment [1], in experiment [2], in [3], in [4], in experiment [5] and in experiment [6] was more than 100 µM in each case. Moreover, the TGI in experiment [7], in experiment [8], in experiment [9], in [10], in [11] and in experiment [12] was more than 100 µM each time. The compound also displayed a TGI in [13] of more than 100 µM.
Consider `O=C(O)CCc1ccc2c(c1)C(=O)CC2`, for which the TGI in experiment [1], in experiment [2], in experiment [3], in experiment [4], in [5] and in [6] was more than 100 µM throughout. The TGI in [7], in experiment [8], in [9], in experiment [10], in experiment [11] and in experiment [12] was more than 100 µM throughout. Moreover, in experiment [13], the TGI was more than 100 µM.
For the compound `O=c1oc2ccccc2c(O)c1/C=N/C(=S)NCCc1ccccc1`, the TGI in experiment [1] was more than 100 µM; in experiment [2] it was more than 100 µM; in [3], more than 100 µM; in [4], 86.1 µM; in experiment [5], 87.4 µM; in [6], more than 100 µM. For the same compound, the TGI in experiment [7], in [8], in [9], in experiment [10], in experiment [11] and in experiment [12] was more than 100 µM throughout. Moreover, the TGI in experiment [13] is more than 100 µM.
Regarding `COC(=O)[C@@H]1CN(C(C)=O)C(=O)N1C(=O)OCc1ccccc1`, the TGI in [1], in [2], in experiment [3], in [4], in experiment [5] and in [6] was more than 100 µM throughout. Moreover, the TGI in experiment [7], in experiment [8], in experiment [9], in experiment [10], in experiment [11] and in experiment [12] was more than 100 µM throughout. In addition, in experiment [13], the TGI was more than 100 µM.
Regarding `O=C(Nc1ccccc1)N(C1=NCC(CI)S1)c1ccc(F)cc1F` (stereo unspecified), the TGI was more than 100 µM in experiment [1]; more than 100 µM in experiment [2]; more than 100 µM in experiment [3]; 48.1 µM in [4]; more than 100 µM in [5]; 78.4 µM in experiment [6]. Further, the TGI in experiment [7] was more than 100 µM; in experiment [8] it was 52 µM; in [9], more than 100 µM; in [10], more than 100 µM; in experiment [11], more than 100 µM; in experiment [12], more than 100 µM. In addition, the TGI in [13] is 57 µM.
As for `CC1=C/C(=N\O)C(C(O)(C(F)(F)F)C(F)(F)F)C(C)(C)C1` (stereo unspecified), the TGI in [1], in experiment [2], in experiment [3], in experiment [4], in [5] and in experiment [6] was more than 10 µM throughout. Also, the TGI in experiment [7], in experiment [8], in [9], in experiment [10], in experiment [11] and in [12] was more than 10 µM throughout. In experiment [13], this compound yielded a TGI of more than 10 µM.
